Test results reported in patent US20240261271A1, “APPLICATION OF HYDRONIDONE IN PREPARATION OF DRUG FOR TREATING OR PREVENTING CHRONIC HEPATITIS B WITH LIVER FIBROSIS” (priority 2021, published 2024).

Assays:
[1] = system: liver tissue inflammation; experiment: Phase II clinical study: liver tissue inflammation grading; type: in vivo, human; details: after 52 weeks of treatment
Procedure: (§1) This is a randomized, double-blind, placebo-controlled, multicenter, and dose-finding phase II clinical study with foundational treatment. In the clinical trial, three different dose test groups and a placebo control group were set on the basis of the entecavir capsule antiviral treatment, and the planned sample amount of each group was 60 cases, totaling 240 cases. The three dose test groups were 180 mg group, 270 mg group, and 360 mg group, respectively. The proportion of each test group to the control group was 1:1:1:1, and the cases were distributed randomly. […] Negative conversion rate of HBV DNA after treatment between the groups was compared using CMH-λ2 test or Fisher's exact probability method. • 2. Liver tissue elasticity reduction after treatment between the groups was compared using Kruskal-Wallis H test. • 3. […] The recovery rate of the liver function index after treatment between the groups was compared using CMH-λ2 test or Fisher's exact probability method, and the found values of each index between the groups were compared using variance analysis or Kruskal-Wallis H test.

[2] = Phase II clinical study: safety (adverse events, adverse effects, SAE); type: in vivo; details: 180, 270 and 360 mg groups vs placebo, 52 weeks, adverse effects and SAE incidence rates not statistically different
Source text: Safety indexes: vital signs, laboratory indexes, adverse events/adverse effects, and the like.
All cases that had been randomized, used the study drug at least once, and had safety evaluation data after medication, constitute the safety population for this study.
Safety indexes include adverse events/adverse effects, laboratory indexes, physical examinations, and the like. • 1. The incidence rates of the adverse events/adverse effects of each group were compared using CMH-λ2 test or Fisher's exact probability method, and the relative frequency and severity of all the adverse events in the test, the relationship with the drug, the treatment, the outcome, and the like were described in a table. • 2. The physical examinations were described in a table for normal/abnormal changes after the experiment. • 3. The laboratory indexes were described in a table for normal/abnormal changes, abnormal exacerbation, and the like before and after the test, and the relationship between the laboratory indexes and the test drug was evaluated. The quantitative indexes were statistically described for each time point measured, the variation inside the groups was compared using Wilcoxon signed rank test, and the variation between the groups was compared using Kruskal-Wallis H test.

[3] = system: liver stiffness in chronic hepatitis B with hepatic fibrosis; experiment: Phase II clinical study: liver transient elastography LSM (kPa); type: in vivo, human; details: FAS, after 52 weeks of treatment
Procedure: as §1

[4] = system: ALT (alanine aminotransferase); experiment: Phase II clinical study: ALT index of liver function; type: in vivo, human; details: FAS, after 52 weeks of treatment
Procedure: as §1

[5] = system: HBV DNA; experiment: Phase II clinical study: negative conversion rate of HBV DNA; type: in vivo, human; details: for proportion of the subjects with HBV DNA substantially converted to negative: after 52 weeks of treatment, with entecavir
Procedure: as §1

Cc1ccc(=O)n(-c2ccc(O)cc2)c1 [hydronidone]
proportion of the subjects with the liver tissue inflammation ameliorated ([1]; 180 mg group): 21 (58.33%) n(%)
proportion of the subjects with the liver tissue inflammation ameliorated ([1]; 270 mg group): 20 (57.14%) n(%)
proportion of the subjects with the liver tissue inflammation ameliorated ([1]; 360 mg group): 19 (55.88%) n(%)
safety [2]: good
mean decline rate (standard deviation) of the liver transient elastography LSM (kPa) ([3]; 180 mg group): 18.30%
mean decline rate (standard deviation) of the liver transient elastography LSM (kPa) ([3]; 270 mg group): 24.62%
mean decline rate (standard deviation) of the liver transient elastography LSM (kPa) ([3]; 360 mg group): 18.98%
mean (standard deviation) of variation of the ALT index compared with the baseline ([4]; 180 mg group): 44.71 (53.50)
proportion of the subjects with ALT indexes determined to turn normal from abnormal (baseline) ([4]; 180 mg group): 15 (78.95%) n(%)
mean (standard deviation) of variation of the ALT index compared with the baseline ([4]; 270 mg group): 66.47 (78.13)
proportion of the subjects with ALT indexes determined to turn normal from abnormal (baseline) ([4]; 270 mg group): 18 (85.71%) n(%)
mean (standard deviation) of variation of the ALT index compared with the baseline ([4]; 360 mg group): 43.58 (59.87)
proportion of the subjects with ALT indexes determined to turn normal from abnormal (baseline) ([4]; 360 mg group): 16 (88.89%) n(%)
proportion of the subjects with HBV DNA substantially converted to negative ([5]; 180 mg group): 34 (94.44%) n(%)
proportion of the subjects with HBV DNA substantially converted to negative ([5]; 270 mg group): 34 (97.14%) n(%)
proportion of the subjects with HBV DNA substantially converted to negative ([5]; 360 mg group): 32 (94.12%) n(%)
influence on the reduction of the virus titer by entecavir and the ALT recovery ([5]; each hydronidone test group, 52 weeks): no influence
